These results are taken from ChEMBL document CHEMBL5137014, “Insight on pyrimido[5,4-g]indolizine and pyrimido[4,5-c]pyrrolo[1,2-a]azepine systems as promising photosensitizers on malignant cells” (Eur J Med Chem, 2022).

Calls of active or inactive are those of the source. No cut-off for these calls is given here.

The test system of data set [1] is MDA-MB-231. The experiment in a line: Phototoxicity against human MDA-MB-231 cells assessed as cell viability incubated for 1 hr followed by irradiated with 2 J/cm^2 of light dose measured after 72 hrs by MTT assay. The data set is classed as functional, cell-based. Particulars: MDA-MB-231, light or radiation study. In general terms: Tetrazolium assays rely on reduction of a dye to a coloured formazan, in cell work by metabolically active cells.

The nature of data set [2]: Induction of superoxide anion generation irradiated with 560 nm LED light. The data set is classed as functional.
The test system of data set [3] is DNA. The experiment in a line: Induction of DNA damage in Escherichia coli pBR322 DNA assessed as open circular DNA irradiated with 7.5 J/cm^2 UV light dose relative to control. In kind it is nucleic-acid assay.
The test system of data set [4] is DNA. The experiment in a line: Induction of DNA damage in Escherichia coli pBR322 DNA assessed as open circular DNA relative to control. In kind it is nucleic-acid assay.
In data set [5] the test system is DNA. Nature of the data set: Induction of DNA damage in Escherichia coli pBR322 DNA assessed as supercoiled DNA relative to control. In kind it is nucleic-acid assay.
Data set [6] relates to DNA. Nature of the data set: Induction of DNA damage in Escherichia coli pBR322 DNA assessed as supercoiled DNA irradiated with 15 J/cm^2 UV light dose relative to control. The data set is classed as nucleic-acid assay.
Data set [7] relates to DNA. Nature of the data set: Induction of DNA damage in Escherichia coli pBR322 DNA assessed as open circular DNA irradiated with 15 J/cm^2 UV light dose relative to control. In kind it is nucleic-acid assay.
In data set [8] the test system is DNA. Nature of the data set: Induction of DNA damage in Escherichia coli pBR322 DNA assessed as supercoiled DNA irradiated with 7.5 J/cm^2 UV light dose relative to control. In kind it is nucleic-acid assay.
For data set [9], the system named is MDA-MB-231. The experiment in a line: Dark toxicity against human MDA-MB-231 cells assessed as cell viability after 72 hrs by MTT assay. In kind it is functional, cell-based. Particulars: MDA-MB-231, 72 h.
Data set [10] in a line: Selectivity index, ratio of IC50 for dark toxicity against human MDA-MB-231 cells to IC50 for phototoxicity against human MDA-MB-231 cells irradiated with 2 J/cm^2 of light dose. The conditions noted are these: read-out: Ratio IC50. In kind it is cell-based.
In data set [11] the test system is T-24. The experiment in a line: Induction of apoptosis in human T24 cells assessed as apoptotic cells at IC50 followed by irradiated with 2 J/cm^2 of light dose after 24 hrs annexin-V-PI staining based flow cytometry. The data set is classed as functional, cell-based.
Data set [12] is described as follows: Induction of singlet oxygen in phosphate buffer assessed as RNO bleaching at pH 7.3 irradiated with 440 nm LED light by spectrophotometry. In kind it is functional.
Data set [13] has as its system MDA-MB-231. The experiment in a line: Induction of apoptosis in human MDA-MB-231 cells assessed as chromatin condensation and fragmentation at IC50 measured after 24 hrs by Hoechst staining based microscopic analysis. In kind it is functional.
Data set [14] deals with MDA-MB-231. Nature of the data set: Induction of apoptosis in human MDA-MB-231 cells assessed as pyknotic nuclei at IC50 measured after 24 hrs by Hoechst staining based microscopic analysis. In kind it is functional.
A further data set has as its system HCC1954. Nature of the data set: Phototoxicity against human HCC1954 cells assessed as cell viability incubated for 1 hr followed by irradiated with 2 J/cm^2 of light dose measured after 24 hrs by resazurin assay. The data set is classed as functional, cell-based. Particulars: HCC1954, light or radiation study. On the technique in general: The colour change of resazurin is a common sign of viable cells or microbes.

Data set [15] concerns MDA-MB-231. Nature of the data set: Induction of reactive oxygen species production in human MDA-MB-231 cells assessed as increase in hydrogen peroxide production incubated for 1 hr followed by irradiated with 2 J/cm^2 of light dose by CM-H2DCFDA dye based fluorescence assay. In kind it is functional, cell-based.
Data set [16] deals with MDA-MB-231. The experiment in a line: Induction of reactive oxygen species production in human MDA-MB-231 cells assessed as decrease in thiol formation incubated for 1 hr followed by irradiated with 2 J/cm^2 of light dose after 24 hrs by DTNB assay. The data set is classed as functional, cell-based. The conditions noted are these: time 25.0 hrs, TDE = time-dependent effect.

In data set [17] the test system is T-24. The experiment in a line: Phototoxicity against human T24 cells assessed as cell viability incubated for 1 hr followed by irradiated with 2 J/cm^2 of light dose measured after 24 hrs by resazurin assay. The conditions noted are these: T-24, light or radiation study. In kind it is functional, cell-based.
Data set [18] has as its system T-24. The experiment in a line: Induction of apoptosis in human T24 cells assessed as necrotic cells at IC50 followed by irradiated with 2 J/cm^2 of light dose after 24 hrs annexin-V-PI staining based flow cytometry. The data set is classed as functional, cell-based. (In general: Flow cytometry measures light scatter and fluorescence of single cells or particles in a stream.)

A word on the IC50: it is the concentration at which inhibition is half-maximal. For `CC(C)OC(=O)c1ccc2n1CCc1cnc(NC3CCCCC3)nc1-2`, the IC50 was 12.5 µM with MDA-MB-231 [1] and more than 50 µM with MDA-MB-231 [9]. Also, in data set [2], the result was Active. Further, the Activity in the data set with DNA [3] stood at 40.3%; with DNA [4] it was 18.7%; in the data set with DNA [5], 81.3%; with DNA [6], 36.6%; with DNA [7] it was 63.4%; in the data set with DNA [8], 59.7%. Besides, in data set [10], the selectivity ratio was more than 4.
As for `Nc1ncc2c(n1)-c1cccn1CC2`, the IC50 with MDA-MB-231 [1] is 6.81 µM; in the data set on MDA-MB-231 [9] it was more than 50 µM. In addition, in [10], the selectivity ratio was more than 7.3.
For the molecule `CCOC(=O)c1ccc2n1CCc1cnc(NC3CCCC3)nc1-2`, the IC50 with MDA-MB-231 [1] and with MDA-MB-231 [9] was more than 50 µM throughout.
As to `CC(=O)Nc1ncc2c(n1)-c1ccc(C(=O)OC(C)C)n1CCC2`, the half-inhibitory concentration (IC50) in the data set on MDA-MB-231 [1] is 17.2 µM; in the data set on MDA-MB-231 [9] it was more than 50 µM. In addition, the selectivity ratio in [10] was more than 2.9.
For `c1cc2n(c1)CCc1cnc(NC3CCCC3)nc1-2`, in that order: 0.86 µM, 0.91 µM and 1.1.
As to `CCOC(=O)c1ccc2n1CCc1cnc(NC(C)=O)nc1-2`, the IC50 is 0.9 µM with MDA-MB-231 [1] and more than 6.25 µM in the data set with MDA-MB-231 [9]. For the same molecule, the selectivity ratio in [10] is more than 7.
For `CC(C)OC(=O)c1ccc2n1CCc1cnc(N)nc1-2`, in that order: 14.5 µM, 11.9 µM and 0.8.
Taken in the same sequence, the figures for `c1cc2n(c1)CCc1cnc(NC3CCCCC3)nc1-2` were 3 µM, more than 50 µM and more than 16.7.
Taken in the same sequence, the figures for `CCOC(=O)c1ccc2n1CCCc1cnc(Nc3ccccc3)nc1-2` were 5.45 µM, more than 50 µM and more than 9.2.
For the molecule `CC(C)OC(=O)c1ccc2n1CCCc1cnc(NC3CCCC3)nc1-2`, the concentration for half-maximal inhibition (IC50) in the data set with MDA-MB-231 [1] was 5.76 µM; in the data set on MDA-MB-231 [9], more than 50 µM. Moreover, in data set [10], the selectivity ratio is more than 8.7.
Taken in the same sequence, the figures for `c1ccc(Nc2ncc3c(n2)-c2cccn2CC3)cc1` were 5.55 µM, more than 50 µM and more than 9.
Take `CCOC(=O)c1ccc2n1CCCc1cnc(NC3CCCCC3)nc1-2`: the IC50 amounted to 0.45 µM in the data set on MDA-MB-231 [1], 1.5 µM in the data set on HCC1954, 5.44 µM with MDA-MB-231 [9] and 0.9 µM in the data set with T-24 [17]. Moreover, the outcome (in the data set on T-24 [11]; in data set [2]; in data set [12]; in the data set with MDA-MB-231 [15]; with T-24 [18]) was Active. The Activity is 23.9% in the data set with DNA [3]; 13.8% in the data set on DNA [4]; 86.2% in the data set with DNA [5]; 74.7% in the data set with DNA [6]; 81.3% with MDA-MB-231 [13]; 61.5% in the data set on MDA-MB-231 [14]. Besides, the values for the Activity with DNA [7], in the data set with DNA [8] and in the data set on MDA-MB-231 [16] were 25.3%, 76.1% and “Tde”, respectively. Besides, in [10], the selectivity ratio was 12.1.
As to `CC(=O)Nc1ncc2c(n1)-c1cccn1CC2`, the results for the IC50 with MDA-MB-231 [1] and in the data set with MDA-MB-231 [9] were 14.8 µM and more than 50 µM, respectively. Also, in data set [10], the selectivity ratio was more than 3.4.
With `CC(=O)Nc1ncc2c(n1)-c1ccc(C(=O)OC(C)C)n1CC2`, the IC50 in the data set on MDA-MB-231 [1] is 13.1 µM; with MDA-MB-231 [9] it was more than 50 µM. In addition, the selectivity ratio in [10] is more than 3.8.
Consider `CC(C)OC(=O)c1ccc2n1CCc1cnc(Nc3ccccc3)nc1-2`, for which the IC50 with MDA-MB-231 [1] and with MDA-MB-231 [9] was more than 50 µM in each case.
For `CCOC(=O)c1ccc2n1CCCc1cnc(N)nc1-2`, the IC50 in the data set on MDA-MB-231 [1] and with MDA-MB-231 [9] was more than 50 µM throughout.
For `CCOC(=O)c1ccc2n1CCCc1cnc(NC3CCCC3)nc1-2`, the figures for the IC50 in the data set with MDA-MB-231 [1] and in the data set on MDA-MB-231 [9] were 0.9 µM and 1.41 µM, respectively. Further, the selectivity ratio in [10] turned out to be 1.5.
For the molecule `CC(C)OC(=O)c1ccc2n1CCCc1cnc(NC3CCCCC3)nc1-2`, the IC50 in the data set on MDA-MB-231 [1] was 3.75 µM; with MDA-MB-231 [9], more than 50 µM. Also, the outcome in data set [2] was Active. Besides, the Activity in the data set on DNA [3] came out at 49.5%; in the data set on DNA [4] it was 38.5%; in the data set on DNA [5], 61.5%; in the data set with DNA [6], 50.1%; with DNA [7], 49.9%; in the data set on DNA [8], 50.5%. Moreover, the selectivity ratio in data set [10] is more than 13.3.
Consider `CC(C)OC(=O)c1ccc2n1CCCc1cnc(N)nc1-2`, for which the IC50 came out at 5.76 µM with MDA-MB-231 [1] and 5.87 µM with MDA-MB-231 [9]. Besides, the selectivity ratio in data set [10] is 1.
Take `CCOC(=O)c1ccc2n1CCc1cnc(NC3CCCCC3)nc1-2`: the IC50 worked out at 0.82 µM with MDA-MB-231 [1], 0.9 µM with HCC1954, 1.74 µM with MDA-MB-231 [9] and 0.96 µM in the data set on T-24 [17]. The outcome (with T-24 [11]; in [2]; in [12]; in the data set with MDA-MB-231 [15]; in the data set on T-24 [18]) was Active. Further, the Activity in the data set with DNA [3] was determined as 21.6%; with DNA [4], 16.6%; with DNA [5], 83.4%; with DNA [6] it was 83.5%; in the data set with MDA-MB-231 [13], 83.4%; with MDA-MB-231 [14], 86.2%. Moreover, the Activity is 16.5% in the data set with DNA [7], 78.4% in the data set with DNA [8] and “Tde” in the data set on MDA-MB-231 [16]. Besides, the selectivity ratio in data set [10] was determined as 2.1.
In the case of `CC(C)OC(=O)c1ccc2n1CCCc1cnc(Nc3ccccc3)nc1-2`, the values for the 50% inhibitory concentration (IC50) in the data set with MDA-MB-231 [1] and with MDA-MB-231 [9] were 14.3 µM and more than 50 µM, respectively. The selectivity ratio in data set [10] is more than 3.5.
Taken in the same sequence, the figures for `CCOC(=O)c1ccc2n1CCCc1cnc(NC(C)=O)nc1-2` were 1.46 µM, 27.9 µM and 19.1.
As for `CC(C)OC(=O)c1ccc2n1CCc1cnc(NC3CCCC3)nc1-2`, the concentration for half-maximal inhibition (IC50) is 13.4 µM with MDA-MB-231 [1] and more than 50 µM in the data set on MDA-MB-231 [9]. In data set [10], the selectivity ratio was more than 3.7.
